Read-outs that look alike come from different tables or passages of the source.

The values that follow come from patent US10051861B2, “N-arylamidine-substituted trifluoroethyl sulfide derivatives as acaricides and insecticides” (BAYER CROPSCIENCE AG, priority 2011, dated 2018).

This test has as its system greenhouse red spider mite (Tetranychus urticae). The experiment in a line: Tetranychus urticae spray test, OP-resistant (TETRUR), bean leaf disks. The format is in vivo. The conditions noted are these: Tetranychus urticae, foliar, 144 h, read-out: efficacy (spider mites killed). As for the experimental part:
After 6 days, the effect in % is determined.

Where [1] appears, read: application rate 500 g/ha, after 6 days.

As for `FC(F)(F)CN/C(=N\c1cc(SCC(F)(F)F)c(Cl)cc1Cl)C1CCCC1` [Ia-254], the pest or weed control at 500 g/ha under setting [1] was 90%.

Take `COc1cc(C)c(SCC(F)(F)F)cc1/N=C(\N)C1(Cl)CC1` [Ia-255]: the pest or weed control at 500 g/ha under setting [1] was 90%.

For the compound `FC(F)CN/C(=N\c1cc(SCC(F)(F)F)c(Cl)cc1Cl)C1CCCC1` [Ia-256], the pest or weed control at 500 g/ha under setting [1] turned out to be 90%.

In the case of `Cc1cc(C)c(SCC(F)(F)F)cc1/N=C(\NCC(F)F)C1CCCC1` [Ia-257], the pest or weed control at 500 g/ha under setting [1] worked out at 90%.

Turning to `COC/C(N)=N/c1cc(SCC(F)(F)F)c(Cl)cc1Cl` [Ia-258], under setting [1], the pest or weed control at 500 g/ha is 90%.

As to `FC(F)(F)CN/C(=N\c1cc(SCC(F)(F)F)c(Cl)cc1Cl)C1CCC1` [Ia-259], under setting [1], the pest or weed control at 500 g/ha is 90%.

Regarding `COc1cc(C)c(SCC(F)(F)F)cc1/N=C(\N)c1ccncn1` [Ia-260], the pest or weed control at 500 g/ha under setting [1] turned out to be 90%.

Regarding `Cc1cc(F)c(/N=C(\NCC(F)(F)F)C2CCC2)cc1SCC(F)(F)F` [Ia-261], the pest or weed control at 500 g/ha under setting [1] is 90%.

For the compound `N/C(=N\c1cc(SCC(F)(F)F)c(Cl)cc1Cl)C1CCCO1` (stereo not drawn) [Ia-262], the pest or weed control at 500 g/ha under setting [1] was 90%.

Take `COc1ccc(/C(N)=N\c2cc(SCC(F)(F)F)c(C)cc2F)cc1` [Ia-263]: the pest or weed control at 500 g/ha under setting [1] worked out at 90%.

With `CN/C(=N\c1cc(SCC(F)(F)F)c(Cl)cc1Cl)c1ccc(C(F)(F)F)nc1` [Ia-264], the pest or weed control at 500 g/ha under setting [1] came to 90%.

Regarding `CN/C(=N\c1cc(SCC(F)(F)F)c(C)cc1C)c1cccc(Cl)c1` [Ia-265], under setting [1], the pest or weed control at 500 g/ha stood at 90%.

`N/C(=N\c1cc(SCC(F)(F)F)c(Cl)cc1Cl)c1ccc(Cl)cc1` [Ia-266]: the pest or weed control at 500 g/ha under setting [1] was 90%.

Turning to `Cc1cc(C)c(SCC(F)(F)F)cc1/N=C(\NCC(F)(F)F)C1CCC1` [Ia-267], the pest or weed control at 500 g/ha under setting [1] is 90%.

As to `COc1cc(C)c(SCC(F)(F)F)cc1/N=C(/c1ccc(Cl)cc1)N1CCOCC1` [Ia-268, N-[(4-Chlorophenyl)(morpholin-4-yl)methylene]-2-methoxy-4-methyl-5-[(2,2,2-trifluoroethyl)sulfanyl]aniline], the pest or weed control at 500 g/ha stood at 90%.

Regarding `Cc1cc(F)c(/N=C(/c2cccnc2)N2CCC(F)(F)CC2)cc1SCC(F)(F)F` [Ia-269], under setting [1], the pest or weed control at 500 g/ha was found to be 90%.

With `Cc1cc(F)c(/N=C(/c2ccc(Cl)cc2)N2CCC(F)(F)CC2)cc1SCC(F)(F)F` [Ia-270], the pest or weed control at 500 g/ha under setting [1] came out at 90%.

As to `Cc1cc(C)c(SCC(F)(F)F)cc1/N=C1\SCC(=O)N1CC(F)(F)F` [Ia-272], under setting [1], the pest or weed control at 500 g/ha stood at 100%.

As to `Cc1cc(Cl)c(/N=C2\SCC(=O)N2CC(F)(F)F)cc1SCC(F)(F)F` [Ia-275], the pest or weed control at 500 g/ha under setting [1] came to 100%.

As for `Cc1cc(F)c(/N=c2\scc(C3(Cl)CC3)n2CC(F)(F)F)cc1SCC(F)(F)F` [Ia-276], the pest or weed control at 500 g/ha under setting [1] was 100%.

On to `Cc1cc(F)c(/N=C(\N)C2(Cl)CC2)cc1[S+]([O-])CC(F)(F)F` (stereo not drawn) [Ib-22], for which, under setting [1], the pest or weed control at 500 g/ha was determined as 100%.

Take `CCN(C)/C(=N/c1cc([S+]([O-])CC(F)(F)F)c(C)cc1F)C(F)(F)F` (stereo not drawn) [Ib-23]: under setting [1], the pest or weed control at 500 g/ha was determined as 90%.

For the compound `CN(C)/C(=N/c1cc([S+]([O-])CC(F)(F)F)c(Br)cc1Br)C(F)(F)F` (stereo not drawn) [Ib-25], the pest or weed control at 500 g/ha under setting [1] turned out to be 100%.

Consider `CN(C)/C(=N/c1cc([S+]([O-])CC(F)(F)F)c(Cl)cc1Cl)C(F)(F)F` (stereo not drawn) [Ib-26], for which, under setting [1], the pest or weed control at 500 g/ha came out at 100%.

For `CN/C(=N\c1cc([S+]([O-])CC(F)(F)F)c(C)cc1F)c1cccnc1` (stereo not drawn) [Ib-28, N′-{2-Fluoro-4-methyl-5-[(2,2,2-trifluoroethyl)sulfinyl]phenyl}-N-methylpyridine-3-carboximidamide], under setting [1], the pest or weed control at 500 g/ha worked out at 100%.

On to `Cc1cc(F)c(/N=C(/NCC2CC2)C(F)(F)F)cc1[S+]([O-])CC(F)(F)F` (stereo not drawn) [Ib-29], for which the pest or weed control at 500 g/ha under setting [1] was found to be 100%.

Consider `Cc1cc(Cl)c(/N=C(\N)C(F)(F)C(F)(F)Cl)cc1[S+]([O-])CC(F)(F)F` (stereo not drawn) [Ib-31], for which the pest or weed control at 500 g/ha under setting [1] is 100%.

Consider `CN(C)/C(=N/c1cc([S+]([O-])CC(F)(F)F)c(Cl)cc1F)C(F)(F)F` (stereo not drawn) [Ib-32], for which, under setting [1], the pest or weed control at 500 g/ha came out at 100%.

As to `CCN(CC)/C(=N/c1cc([S+]([O-])CC(F)(F)F)c(C)cc1F)C(F)(F)F` (stereo not drawn) [Ib-34], the pest or weed control at 500 g/ha under setting [1] amounted to 100%.

With `Cc1cc(F)c(/N=C(/NC2(C)CC2)C(F)(F)F)cc1[S+]([O-])CC(F)(F)F` (stereo not drawn) [Ib-36], under setting [1], the pest or weed control at 500 g/ha is 100%.

Take `CN/C(=N\c1cc([S+]([O-])CC(F)(F)F)c(C)cc1F)c1ccc(Cl)cc1` (stereo not drawn) [Ib-37]: the pest or weed control at 500 g/ha under setting [1] was determined as 100%.

In the case of `CN/C(=N/c1cc([S+]([O-])CC(F)(F)F)c(Cl)cc1F)C(F)(F)F` (stereo not drawn) [Ib-41], the pest or weed control at 500 g/ha under setting [1] was found to be 90%.

For the compound `Cc1cc(F)c(/N=C(\N)c2ccccn2)cc1[S+]([O-])CC(F)(F)F` (stereo not drawn) [Ib-45], the pest or weed control at 500 g/ha under setting [1] was determined as 100%.

For `CCN/C(=N\c1cc([S+]([O-])CC(F)(F)F)c(C)cc1F)C1CC1` (stereo not drawn) [Ib-46], the pest or weed control at 500 g/ha under setting [1] was determined as 100%.

In the case of `Cc1cc(F)c(/N=C(/NC(C)(C)C)C(F)(F)F)cc1[S+]([O-])CC(F)(F)F` (stereo not drawn) [Ib-50], the pest or weed control at 500 g/ha under setting [1] stood at 100%.

In the case of `Cc1cc(F)c(/N=C(/C2CC2)N(C)C)cc1[S+]([O-])CC(F)(F)F` (stereo not drawn) [Ib-51], the pest or weed control at 500 g/ha under setting [1] was 100%.

For the compound `Cc1cc(F)c(/N=C2\CCCCN2C)cc1[S+]([O-])CC(F)(F)F` (stereo not drawn) [Ib-52], under setting [1], the pest or weed control at 500 g/ha was determined as 100%.

Take `Cc1cc(F)c(/N=C(\N)C2CC2)cc1[S+]([O-])CC(F)(F)F` (stereo not drawn) [Ib-53]: the pest or weed control at 500 g/ha under setting [1] turned out to be 100%.

`Cc1cc(F)c(/N=C(/NC2COC2)C(F)(F)F)cc1[S+]([O-])CC(F)(F)F` (stereo not drawn) [Ib-54]: the pest or weed control at 500 g/ha under setting [1] worked out at 90%.

In the case of `Cc1cc(F)c(/N=C(\c2ccc(F)cc2)N(C)C)cc1[S+]([O-])CC(F)(F)F` (stereo not drawn) [Ib-60], the pest or weed control at 500 g/ha under setting [1] came to 90%.

In the case of `Cc1cc(F)c(/N=C(\c2ccc(C#N)cc2)N(C)C)cc1[S+]([O-])CC(F)(F)F` (stereo not drawn) [Ib-61], the pest or weed control at 500 g/ha under setting [1] was determined as 100%.

On to `Cc1cc(F)c(/N=C(\N)c2cccnc2)cc1[S+]([O-])CC(F)(F)F` (stereo not drawn) [Ib-63], for which the pest or weed control at 500 g/ha under setting [1] was determined as 100%.

Turning to `N/C(=N\c1cc([S+]([O-])CC(F)(F)F)c(Cl)cc1Cl)C1(Cl)CC1` (stereo not drawn) [Ib-64], under setting [1], the pest or weed control at 500 g/ha worked out at 100%.

Regarding `Cc1cc(F)c(/N=C(\N)c2ccncn2)cc1[S+]([O-])CC(F)(F)F` (stereo not drawn) [Ib-65], under setting [1], the pest or weed control at 500 g/ha was 100%.

On to `Cc1cc(F)c(/N=C(\c2cccc(F)c2)N(C)C)cc1[S+]([O-])CC(F)(F)F` (stereo not drawn) [Ib-66], for which, under setting [1], the pest or weed control at 500 g/ha was 90%.

Regarding `CN/C(=N/c1cc([S+]([O-])CC(F)(F)F)c(C)cc1F)c1cccc(F)c1` (stereo not drawn) [Ib-67], under setting [1], the pest or weed control at 500 g/ha is 90%.

On to `N/C(=N\c1cc([S+]([O-])CC(F)(F)F)c(Cl)cc1Cl)c1ccncn1` (stereo not drawn) [Ib-69], for which, under setting [1], the pest or weed control at 500 g/ha came to 100%.

For the compound `Cc1cc(F)c(/N=C(\N)C2(C#N)CC2)cc1[S+]([O-])CC(F)(F)F` (stereo not drawn) [Ib-72], under setting [1], the pest or weed control at 500 g/ha is 100%.

Take `Cc1cc(F)c(/N=C(/c2ccc(Cl)cc2)N(C)C)cc1[S+]([O-])CC(F)(F)F` (stereo not drawn) [Ib-73]: under setting [1], the pest or weed control at 500 g/ha was determined as 90%.

In the case of `Cc1cc(F)c(/N=C(/NCc2ccccc2)C(F)(F)F)cc1[S+]([O-])CC(F)(F)F` (stereo not drawn) [Ib-74], the pest or weed control at 500 g/ha under setting [1] was 90%.

`Cc1cc(F)c(/N=C(\c2ccc(C(F)(F)F)nc2)N(C)C)cc1[S+]([O-])CC(F)(F)F` (stereo not drawn) [Ib-75]: the pest or weed control at 500 g/ha under setting [1] amounted to 100%.
